Test results reported in US9504725B2, “Compositions and functional foods for treating and preventing obesity using polygonum cuspidatum butanol fraction and ethyl acetate fraction” (KOREA INSTITUTE OF ORIENTAL MEDICINE, priority 2009, dated 2016).

What was measured:
[1] = target: T1, porcine pancreatic lipase (Sus scrofa, UniProt P00591); assay: Inhibition of porcine pancreatic lipase activity (p-NPB hydrolysis); format: biochemical
T1 construct: purchased Sigma, St. Louis, Mo., USA
T1 sequence (P00591 1-450): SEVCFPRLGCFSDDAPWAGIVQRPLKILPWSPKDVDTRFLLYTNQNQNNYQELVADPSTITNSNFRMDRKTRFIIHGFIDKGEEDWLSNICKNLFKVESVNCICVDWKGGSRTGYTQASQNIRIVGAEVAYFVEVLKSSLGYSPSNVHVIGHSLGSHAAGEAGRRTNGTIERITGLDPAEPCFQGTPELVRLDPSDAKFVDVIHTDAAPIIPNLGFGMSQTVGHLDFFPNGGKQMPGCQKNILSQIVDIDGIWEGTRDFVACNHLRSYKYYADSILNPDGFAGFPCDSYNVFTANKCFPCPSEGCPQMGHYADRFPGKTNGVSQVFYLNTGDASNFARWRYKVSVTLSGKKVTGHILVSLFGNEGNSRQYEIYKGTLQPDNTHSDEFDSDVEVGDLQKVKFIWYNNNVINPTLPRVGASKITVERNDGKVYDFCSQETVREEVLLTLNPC

[2] = Inhibitory effect on short term absorption of lipid emulsions in animals (triglyceride after oral lipid emulsion); format: in vivo, male wistar rats
[3] = Obesity-preventive effect in high-fat diet-fed mice (body weight, fats, adipocyte size, serum lipids, fatty liver, insulin); format: in vivo, male C57BL/6 mice
[4] = high-fat feed mixed with drug (POCU 1%, Xenical 0.1%), 10 weeks

SMILES: Oc1ccc(/C=C/c2cc(O)cc(O)c2)cc1 [Resveratrol, trans-resveratrol]
- inhibition at 50 µg/mL ([1]; 50 μg/mL, read-out: Inhibitory effect on pancreatic lipase activity (%)): 32.4 ± 3%
- inhibition at 100 µg/mL ([1]; 100 μg/mL, read-out: Inhibitory effect on pancreatic lipase activity (%)): 47.2 ± 1.6%
- IC50 ([1]; porcine pancreatic lipase, p-NPB substrate): 543 µM
- Concentration of serum triglyceride ([2]; 10 mg/kg oral with lipid emulsion, 0 h (before administration)): 147.0 ± 4.2 mg/dL
- Concentration of serum triglyceride ([2]; 10 mg/kg oral with lipid emulsion, 1 h): 212.5 ± 14.0 mg/dL
- Concentration of serum triglyceride ([2]; 10 mg/kg oral with lipid emulsion, 2 h): 219.3 ± 77.3 mg/dL
- Concentration of serum triglyceride ([2]; 10 mg/kg oral with lipid emulsion, 3 h): 195.5 ± 25.9 mg/dL
- Concentration of serum triglyceride ([2]; 10 mg/kg oral with lipid emulsion, 4 h): 193.2 ± 12.1 mg/dL
- Concentration of serum triglyceride ([2]; 50 mg/kg oral with lipid emulsion, 0 h (before administration)): 146.1 ± 1.4 mg/dL
- Concentration of serum triglyceride ([2]; 50 mg/kg oral with lipid emulsion, 1 h): 208.3 ± 31.0 mg/dL
- Concentration of serum triglyceride ([2]; 50 mg/kg oral with lipid emulsion, 2 h): 228.0 ± 58.4 mg/dL
- Concentration of serum triglyceride ([2]; 50 mg/kg oral with lipid emulsion, 3 h): 198.8 ± 62.3 mg/dL
- Concentration of serum triglyceride ([2]; 50 mg/kg oral with lipid emulsion, 4 h): 183.7 ± 50.3 mg/dL
- Concentration of serum triglyceride ([2]; 250 mg/kg oral with lipid emulsion, 2 h): 228.5 ± 8.4 mg/dL

SMILES: CCCCCCCCCCC[C@@H](C[C@@H]1OC(=O)[C@H]1CCCCCC)OC(=O)[C@H](CC(C)C)NC=O [Xenical, tetrahydrolipstatin (orlistat)]
- Concentration of serum triglyceride ([2]; 200 mg/kg oral with lipid emulsion, 0 h (before administration)): 159.6 ± 19.0 mg/dL
- Concentration of serum triglyceride ([2]; 200 mg/kg oral with lipid emulsion, 1 h): 133.7 ± 11.3 mg/dL
- Concentration of serum triglyceride ([2]; 200 mg/kg oral with lipid emulsion, 2 h): 124.4 ± 18.0 mg/dL
- Concentration of serum triglyceride ([2]; 200 mg/kg oral with lipid emulsion, 3 h): 118.1 ± 24.5 mg/dL
- Concentration of serum triglyceride ([2]; 200 mg/kg oral with lipid emulsion, 4 h): 120.9 ± 12.5 mg/dL
- adipocyte size ([3]; H&E stained adipose tissue, high-fat diet group 125 μm): 75 μm
- gonadal fat weight [3, 4]: 0.17 g
- perirenal fat weight [3, 4]: 0.04 g
- subcutaneous fat weight [3, 4]: 0.14 g
- extent of body weight gain ([3]; high-fat feed mixed with drug, 10 weeks, high-fat diet group 10.9 g): 6.1 g
